Structures can show the parent of a compound that is named as a salt.
Columns and labels:
[1] = target: T1, recombinant human 5-HT6 receptor (Homo sapiens, UniProt P50406); assay: 5-HT6 radioligand binding ([3H]LSD competition); conditions: [3H]LSD displacement, membranes of HEK293 cells expressing recombinant human 5-HT6 receptor, 37° C.; read-out: pKi for 5-HT6 (converted)
T1 construct: expressed in transfected cells
Method: (§1) The binding activity of compounds of this invention in vitro was determined as follows. Duplicate determinations of 5-HT6 ligand affinity were made by competing for binding of [^3H]LSD in cell membranes derived from HEK293 cells stably expressing recombinant human 5-HT6 receptor. Duplicate determinations of 5-HT2A ligand affinity were made by competing for binding of [^3H]Ketanserin (3-(2-(4-(4-fluorobenzoyl)piperidinol)ethyl)-2,4(1H,3H)-quinazolinedione) in cell membranes derived from CHO-K1 cells stably expressing recombinant human 5-HT2A receptor. Membranes were prepared from HEK 293 cell lines by the method described by Monsma et al., Molecular Pharmacology, Vol. 43 pp. 320-327 (1993), and from CHO-K1 cell lines as described by Bonhaus et al., Br J Pharmacol. June; 115(4):622-8 (1995).
(§2) For estimation of affinity at the 5-HT6 receptor, all determinations were made in assay buffer containing 50 mM Tris-HCl, 10 mM MgSO4, 0.5 mM EDTA, 1 mM ascorbic acid, pH 7.4 at 37° C., in a 250 microliter reaction volume. […]
(§3) Assay tubes containing [^3H] […] Ketanserin were determined as radioactive counts per minute using Packard TopCount.
(§4) Displacement of [^3H]LSD or [^3H]Ketanserin from the binding sites was quantified by fitting concentration-binding data to a 4-parameter logistic equation: […]

[2] = target: T2, recombinant human 5-HT2A receptor (Homo sapiens, UniProt P28223); assay: 5-HT2A radioligand binding ([3H]Ketanserin competition); conditions: [3H]Ketanserin displacement, membranes of CHO-K1 cells expressing recombinant human 5-HT2A receptor, 32° C.; read-out: pKi for 5-HT2A (converted)
T2 construct: expressed in transfected cells
T2 sequence (P28223 whole entry): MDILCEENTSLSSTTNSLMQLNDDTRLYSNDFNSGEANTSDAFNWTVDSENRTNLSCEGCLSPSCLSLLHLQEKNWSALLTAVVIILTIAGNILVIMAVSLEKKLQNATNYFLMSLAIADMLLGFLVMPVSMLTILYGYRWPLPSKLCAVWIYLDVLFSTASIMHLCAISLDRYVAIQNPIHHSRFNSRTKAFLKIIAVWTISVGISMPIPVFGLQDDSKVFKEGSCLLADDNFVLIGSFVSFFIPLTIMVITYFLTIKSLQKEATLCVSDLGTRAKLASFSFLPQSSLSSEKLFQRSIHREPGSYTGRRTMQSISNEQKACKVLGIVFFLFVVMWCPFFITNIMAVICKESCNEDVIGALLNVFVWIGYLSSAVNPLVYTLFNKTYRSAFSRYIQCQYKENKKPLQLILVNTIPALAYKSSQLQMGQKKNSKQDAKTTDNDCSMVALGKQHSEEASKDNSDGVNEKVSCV
Method: as §1, §2, §3, §4

T1 sequence (P50406 whole entry): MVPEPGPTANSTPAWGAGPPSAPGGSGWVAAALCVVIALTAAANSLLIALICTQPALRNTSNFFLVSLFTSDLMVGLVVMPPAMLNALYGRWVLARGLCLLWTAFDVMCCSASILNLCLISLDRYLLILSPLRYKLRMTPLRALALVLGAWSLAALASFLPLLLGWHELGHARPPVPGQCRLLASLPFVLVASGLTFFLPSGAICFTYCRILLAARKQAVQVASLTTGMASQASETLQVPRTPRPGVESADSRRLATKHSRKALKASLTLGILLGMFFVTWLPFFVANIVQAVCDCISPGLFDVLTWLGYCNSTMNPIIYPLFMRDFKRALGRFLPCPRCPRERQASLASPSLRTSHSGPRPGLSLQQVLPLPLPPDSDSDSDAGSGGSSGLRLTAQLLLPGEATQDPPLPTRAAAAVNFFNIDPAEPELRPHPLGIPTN

Row | Compound | melting point [°C] | further results
1 | CNC[C@@H]1CCCc2cc(S(=O)(=O)c3cccc(OC)c3)ccc21 (as salt: HCl) [Compound 50, (R)-[6-(3-Methoxy-benzenesulfonyl)-1,2,3,4-tetrahydro-naphthalen-1-ylmethyl]-methyl-amine] | 265 to 266 | –
2 | CNC[C@H]1CCCc2cc(S(=O)(=O)c3ccccc3)ccc21 (as salt: TFA) [Compound 40, (S)-(6-Benzenesulfonyl-1,2,3,4-tetrahydro-naphthalen-1-ylmethyl)-methyl-amine] | 146 to 147 | –
3 | N#Cc1cccc(S(=O)(=O)c2ccc3c(c2)CCC[C@H]3CN)c1 (as salt: oxalate) [Compound 52, (R)-3-(5-Aminomethyl-5,6,7,8-tetrahydro-naphthalene-2-sulfonyl)-benzonitrile] | 212 to 213 | –
4 | N=C(N)CCC1CCCc2cc(S(=O)(=O)c3ccccc3)ccc21 (stereo not drawn) [3-(6-Benzenesulfonyl-1,2,3,4-tetrahydro-naphthalen-1-yl)-propionamidine] | – | Ki [1]: ~141 pM
5 | CC1(C)CN=C(NCC2CCCc3ccc(S(=O)(=O)c4ccccc4)cc32)NC1 (stereo not drawn) [Compound 11, (7-Benzenesulfonyl-1,2,3,4-tetrahydro-naphthalen-1-ylmethyl)-(5,5-dimethyl-1,4,5,6-tetrahydro-pyrimidin-2-yl)-amine] | 140 to 145 | –
6 | CC(=N)NCC1CCCc2cc(S(=O)(=O)c3ccccc3)ccc21 (stereo not drawn) [N-(6-Benzenesulfonyl-1,2,3,4-tetrahydro-naphthalen-1-ylmethyl)-acetamidine] | – | Ki [2]: ~282 pM

From patent US8889906B2, “Tetralin and indane derivatives and uses thereof” (Roche Palo Alto LLC, priority 2004, dated 2014)
